According to patent US7795457B2, “Carbamate compounds” (Kosan Biosciences Incorporated, priority 2007, dated 2010):
Read-outs that look alike come from different tables or passages of the source.

What was measured:
A549 = assay: Inhibition of tumor cell proliferation, A549; assay type: cell-based; settings: Homo sapiens, read-out: IC50, nM, A549
Method: (§1) The biological activity of compounds of this invention was evaluated by measuring their inhibitory effect on the proliferation of various tumor cell lines. HCT-116 is a human colon cancer cell line. LNCap is a human prostate cancer cell line. SiHa is an HPV-16 positive human cervical cancer line.
(§2) Table D presents additional data for the activity of compounds A-1 and A-4 against various cell lines. In some instances, comparative data against leptomycin B (LMB) and/or compound VI (Dong et al., US 2005/0272727 A1 (2005) is also provided.
(§3) The additional cell lines tested against represent a variety of different cancers: bladder cancer (UM-UC-3), breast cancer (BT474, HCC1937, MDA-MB468, NCI-ADR), CNS cancer (U87MG (glioma), SKNSH (neuroblastoma)), colon cancer (LoVo, LS411N, LS513), head and neck cancer (CAL-27, FaDu), leukemia (CCRF-CEM, MOLT-4), liver cancer (HepG2), lung cancer (A549, NCI-H23, NCI-H358), melanoma (Colo829), ovarian cancer (OVCAR-4), pancreatic cancer (BxPC-3, Mia-PaCa2), prostate cancer (22Rv1, PC-3), and renal cancer (A-498, Caki-1).

OVCAR-4 = assay: Inhibition of tumor cell proliferation, OVCAR-4; assay type: cell-based; settings: Homo sapiens
Method: as §1, §2, §3

NCI-ADR = assay: Inhibition of tumor cell proliferation, NCI-ADR; assay type: cell-based; settings: Homo sapiens, NCI/ADR-RES, read-out: IC50, nM, NCI-ADR
Method: as §1, §2, §3

A-498 = assay: Inhibition of tumor cell proliferation, A-498; assay type: cell-based; settings: Homo sapiens, A498; exposure time 1 h
Method: as §1, §2, §3

PC-3 = assay: Inhibition of tumor cell proliferation, PC-3; assay type: cell-based; settings: Homo sapiens
Method: as §1, §2, §3

LS513 = assay: Inhibition of tumor cell proliferation, LS513; assay type: cell-based; settings: Homo sapiens, LS-513
Method: as §1, §2, §3

UM-UC-3 = assay: Inhibition of tumor cell proliferation, UM-UC-3; assay type: cell-based; settings: Homo sapiens, read-out: IC50, nM, UM-UC-3
Method: as §1, §2, §3

BT474 = assay: Inhibition of tumor cell proliferation, BT474; assay type: cell-based; settings: Homo sapiens, BT-474
Method: as §1, §2, §3

Caki-1 = assay: Inhibition of tumor cell proliferation, Caki-1; assay type: cell-based; settings: Homo sapiens, exposure time 1 h
Method: as §1, §2, §3

FaDu = assay: Inhibition of tumor cell proliferation, FaDu; assay type: cell-based; settings: Homo sapiens
Method: as §1, §2, §3

NCI-H23 = assay: Inhibition of tumor cell proliferation, NCI-H23; assay type: cell-based; settings: Homo sapiens
Method: as §1, §2, §3

CCRF-CEM = assay: Inhibition of tumor cell proliferation, CCRF-CEM; assay type: cell-based; settings: Homo sapiens, exposure time 72 h
Method: as §1, §2, §3

Mia-PaCa2 = assay: Inhibition of tumor cell proliferation, Mia-PaCa2; assay type: cell-based; settings: Homo sapiens, MIA PaCa-2
Method: as §1, §2, §3

MOLT-4 = assay: Inhibition of tumor cell proliferation, MOLT-4; assay type: cell-based; settings: Homo sapiens, exposure time 72 h
Method: as §1, §2, §3

HCC1937 = assay: Inhibition of tumor cell proliferation, HCC1937; assay type: cell-based; settings: Homo sapiens
Method: as §1, §2, §3

HepG2 = assay: Inhibition of tumor cell proliferation, HepG2; assay type: cell-based; settings: Homo sapiens
Method: as §1, §2, §3

NCI-H358 = assay: Inhibition of tumor cell proliferation, NCI-H358; assay type: cell-based; settings: Homo sapiens
Method: as §1, §2, §3

CAL-27 = assay: Inhibition of tumor cell proliferation, CAL-27; assay type: cell-based; settings: Homo sapiens
Method: as §1, §2, §3

LS411N = assay: Inhibition of tumor cell proliferation, LS411N; assay type: cell-based; settings: Homo sapiens, LS-411N
Method: as §1, §2, §3

22Rv1 = assay: Inhibition of tumor cell proliferation, 22Rv1; assay type: cell-based; settings: Homo sapiens
Method: as §1, §2, §3

U87MG = assay: Inhibition of tumor cell proliferation, U87MG; assay type: cell-based; settings: Homo sapiens, U-87 MG
Method: as §1, §2, §3

Colo829 = assay: Inhibition of tumor cell proliferation, Colo829; assay type: cell-based; settings: Homo sapiens, COLO-829
Method: as §1, §2, §3

SKNSH = assay: Inhibition of tumor cell proliferation, SKNSH; assay type: cell-based; settings: Homo sapiens, SK-N-SH, read-out: IC50, nM, SKNSH
Method: as §1, §2, §3

LoVo = assay: Inhibition of tumor cell proliferation, LoVo; assay type: cell-based; settings: Homo sapiens, exposure time 1 h
Method: as §1, §2, §3

HCT-116 = assay: Inhibition of tumor cell proliferation, HCT-116; assay type: cell-based, human; settings: Homo sapiens, HCT-116, read-out: Cancer Cell Line (IC50, nM) HCT-116
Method: as §1

SiHa = assay: Inhibition of tumor cell proliferation, SiHa; assay type: cell-based, human; settings: Homo sapiens, SiHa, read-out: Cancer Cell Line (IC50, nM) SiHa
Method: as §1

LNCap = assay: Inhibition of tumor cell proliferation, LNCap; assay type: cell-based, human; settings: Homo sapiens, LNCaP, read-out: Cancer Cell Line (IC50, nM) LNCap
Method: as §1

CRM1 substrate RanBP1 = assay: Nuclear export block (RanBP1 localization, recovery after compound removal); assay type: cell-based; settings: recovery of cytoplasmic RanBP1 localization after compound washout (typically 1 h exposure; 8, 24 or 48 h recovery)
Method: The nuclear export blocking capability of compounds of this invention was evaluated as follows:
1-5×10^4 cells were seeded onto 12 mm glass coverslips or wells of a chamber slide (for example, Lab-Tek #177445). Cells were grown overnight at 37° C. to allow cells to attach to the surface. Media was removed and replaced with media containing the desired test compound and incubated the required time period (typically 1 h). For recovery experiments, cells were washed with PBS or media and incubated in media without test compound for the desired recovery periods (typically 8, 24, or 48 h). The media was removed and coverslips/wells were washed with PBS pH 7.4 for 1 minute. Coverslips or slides were fixed with 3.7% formaldehyde in PBS for 20 minutes at room temperature, washed three times in PBS, and stained for the CRM1 substrate RanBP1.
Coverslips or chamber slides were permeabilized and blocked in 10% donkey serum, 0.1% Triton X-100 in PBS for 30 minutes at room temperature. Primary antibodies were diluted in PBS and incubated for 1 hour at room temperature: goat-anti-RanBP1 (Santa Cruz Biotechnology, sc-1160; 1:50 dilution) and mouse-anti-tubulin (Sigma, T9026; 1:400). Cells were washed 3×5 minutes in PBS. Secondary antibodies donkey-anti-goat Cy3 (705-165-147, Jackson Immunoresearch) and donkey anti-mouse FITC (715-095-150, Jackson Immunoresearch) were diluted 1:200 in PBS and incubated for 1 hour at room temperature. Secondary antibody was removed and cells were stained with a nuclear dye such as DAPI (Sigma, D8417; 2.5 ug/mL in PBS) or Hoechst 33342 (Molecular Probes, H3570; 100 ng/mL in PBS) for 5 minutes at room temperature. Cells were washed 3×5 minutes in PBS and coverslips were mounted with FluorSave (EMD Biosciences, 80058-108). Nuclear (N) or cytoplasmic (C) localization of RanBP1 was examined using a 40× objective on a Zeiss Axiovert 200 inverted epiflourescence microscope. Nuclear localization (N>C) was confirmed after the initial drugging period.

Structure (SMILES): CCC(=C/[C@H](C)C/C=C/C(C)=C/[C@@H](C)C(=O)[C@@H](C)[C@H](O)[C@@H](C)C/C(C)=C/C(=O)NCCc1cccnc1)/C=C/[C@@H]1OC(=O)C=C[C@@H]1C [VI, reference compound]
- IC50 (A549; A549, 1 h): 3.8 nM
- IC50 (A549; A549, 72 h): 3 nM
- IC50 (OVCAR-4; exposure time 1 h): 6.7 nM
- IC50 (OVCAR-4; exposure time 72 h): 1.5 nM
- IC50 (NCI-ADR; 1 h): 77.3 nM
- IC50 (NCI-ADR; 72 h): 13 nM
- IC50 (A-498): 4.8 nM
- IC50 (PC-3; exposure time 1 h): 3.3 nM
- IC50 (PC-3; exposure time 72 h): 0.7 nM
- IC50 (LS513; exposure time 1 h): 5.5 nM
- IC50 (LS513; exposure time 72 h): 0.9 nM
- IC50 (UM-UC-3; UMUC3, 1 h): 2.6 nM
- IC50 (UM-UC-3; UMUC3, 72 h): 0.3 nM
- IC50 (BT474; exposure time 1 h): 2.1 nM
- IC50 (BT474; exposure time 72 h): 0.8 nM
- IC50 (Caki-1): 4.5 nM
- IC50 (FaDu; exposure time 1 h): 7.3 nM
- IC50 (FaDu; exposure time 72 h): 1 nM
- IC50 (NCI-H23; exposure time 1 h): 2.6 nM
- IC50 (NCI-H23; exposure time 72 h): 0.4 nM
- IC50 (CCRF-CEM): 0.8 nM
- IC50 (Mia-PaCa2; exposure time 1 h): 5 nM
- IC50 (Mia-PaCa2; exposure time 72 h): 1.7 nM
- IC50 (MOLT-4): 2.9 nM
- IC50 (HCC1937; exposure time 1 h): 5.7 nM
- IC50 (HCC1937; exposure time 72 h): 4.3 nM
- IC50 (HepG2; exposure time 1 h): 3.2 nM
- IC50 (HepG2; exposure time 72 h): 0.7 nM
- IC50 (NCI-H358; exposure time 1 h): 1.6 nM
- IC50 (NCI-H358; exposure time 72 h): 0.4 nM
- IC50 (CAL-27; exposure time 1 h): 0.7 nM
- IC50 (CAL-27; exposure time 72 h): 0.3 nM
- IC50 (LS411N; exposure time 1 h): 2.9 nM
- IC50 (LS411N; exposure time 72 h): 0.5 nM
- IC50 (22Rv1; exposure time 1 h): 1.8 nM
- IC50 (22Rv1; exposure time 72 h): 0.3 nM
- IC50 (U87MG; exposure time 1 h): 5 nM
- IC50 (U87MG; exposure time 72 h): 0.6 nM
- IC50 (Colo829; exposure time 1 h): 2.1 nM
- IC50 (Colo829; exposure time 72 h): 0.3 nM
- IC50 (SKNSH; 1 h): 2.2 nM
- IC50 (SKNSH; 72 h): 0.5 nM
- IC50 (LoVo): 2.5 nM

Structure (SMILES): CCC(=C/[C@H](C)C/C=C/C(C)=C/[C@@H](C)C(=O)[C@@H](C)[C@H](O)[C@@H](C)C/C(C)=C/C(=O)O)/C=C/[C@@H]1OC(=O)C=C[C@@H]1C [Leptomycin B, reference compound]
- IC50 (A549; A549, exposure time 72 h): 0.55 nM
- IC50 (NCI-ADR; exposure time 1 h): 33.8 nM
- IC50 (UM-UC-3; UMUC3, exposure time 72 h): 0.3 nM
- IC50 (HCT-116; exposure time to compound 1 h): 4.3 nM
- IC50 (HCT-116; exposure time to compound 72 h): 0.32 nM
- IC50 (SiHa; exposure time to compound 1 h): 2.1 nM
- IC50 (SiHa; exposure time to compound 72 h): 0.4 nM
- IC50 (LNCap; exposure time to compound 1 h): 3.3 nM
- IC50 (LNCap; exposure time to compound 72 h): 0.3 nM
- Nuclear Export Block (CRM1 substrate RanBP1): Slow recovery
- IC50 (SKNSH; exposure time 1 h): 4.1 nM
- IC50 (SKNSH; exposure time 72 h): 0.4 nM
